Source: patent US7863271B2, “2-aminobenzoxazole carboxamides as 5HT3 modulators” (Albany Molecular Research, Inc., priority 2006, dated 2011)
Structures can show the parent of a compound that is named as a salt.

Each molecule was assayed against T1, 5-HT3 (Homo sapiens, UniProt P46098) (assay: Compound affinity for the human 5-HT3 receptor (Assay B), SPA radioligand binding with [9-methyl-3H]BRL-43694). Details: not given.
T1 sequence (P46098 24-478): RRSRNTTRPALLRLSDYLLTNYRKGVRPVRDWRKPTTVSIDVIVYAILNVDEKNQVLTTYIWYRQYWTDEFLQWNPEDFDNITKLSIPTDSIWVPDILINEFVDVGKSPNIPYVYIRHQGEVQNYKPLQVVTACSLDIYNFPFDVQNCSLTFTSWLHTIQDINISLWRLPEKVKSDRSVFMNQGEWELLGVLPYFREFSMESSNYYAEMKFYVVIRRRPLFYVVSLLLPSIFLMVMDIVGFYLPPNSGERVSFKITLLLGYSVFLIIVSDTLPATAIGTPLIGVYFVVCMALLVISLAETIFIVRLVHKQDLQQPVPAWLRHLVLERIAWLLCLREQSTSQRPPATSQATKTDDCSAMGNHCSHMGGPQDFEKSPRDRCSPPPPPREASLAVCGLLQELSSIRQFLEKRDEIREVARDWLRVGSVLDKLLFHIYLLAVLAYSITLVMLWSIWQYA
Design: purchased Perkin Elmer
Method: Compound Affinity for the human 5-HT3 Receptor (Assay B)
The relative affinity of the various compounds for the human 5-HT3 receptor was measured in a radioligand binding assay, using a scintillation proximity assay (SPA) format. Test compounds were dissolved to 10 mM in 100% DMSO, then serially diluted at 10× assay concentrations in 100% DMSO in 96-well polypropylene plates and further diluted to 4× assay concentrations with the assay buffer. […] Binding reactions were set up in wells of PicoPlates-96 (Perkin Elmer) by adding consecutively 50 μL of each competing compound or buffer, SPA beads, the radioligand and 5-HT3 receptor membranes. After 60-min incubation at room temperature on a Nutator mixer, plates were centrifuged for 15 min at 1,500 rpm, followed by incubation in the dark for 30 min. Radioactivity was counted in the TopCount microplate counter (Perkin Elmer) for 5 min. […] Specific binding was determined by subtracting nonspecific binding from total binding. All experiments were performed in duplicate using ten concentrations of a competing ligand, with ondansetron included as a control in every run. IC50 values were determined from specific binding data using XLfit4.1 curve fitting software from IDBS Ltd. Ki values were then calculated from the Cheng-Prusoff equation.

Work on `CN1C[C@H]2C[C@H](NC(=O)c3cccc4oc(Nc5ccccc5)nc34)C[C@@H](C1)N2C` [Example 52, Exo-N-(3,9-Dimethyl-3,9-diazabicyclo[3.3.1]nonan-7-yl)-2-(phenylamino)benzoxazole-4-carboxamide Hydrochloride] yielded a Ki of 27.6 nM.

Same assay, conditions: Assay B (method B unless otherwise annotated); read-out: 5-HT3 Ki

Point of comparison: `CN1C2CCCC1CC(NC(=O)c1cccc3oc(N4CCOC[C@@H]4CO)nc13)C2` (stereo partly drawn) [Example 94, Endo-N-(9-Methyl-9-azabicyclo[3.3.1]nonan-3-yl)-2-((S)-3-(hydroxymethyl)morpholino)benzoxazole-4-carboxamide Hydrochloride], Ki 27.5 nM. Against it:
- COCCNc1nc2c(C(=O)N[C@H]3C[C@H]4CCC[C@@H](C3)N4C)cccc2o1 [Example 38, Endo-N-(9-Methyl-9-azabicyclo[3.3.1]nonan-3-yl)-2-(2-methoxyethylamino)benzoxazole-4-carboxamide Hydrochloride] — 3.7-fold lower, 7.5 nM
- C[C@H]1CN(C)CCN1c1nc2c(C(=O)NC3CC4CCCC(C3)N4C)cc(Cl)cc2o1 (stereo partly drawn) [Example 63, Endo-N-(9-methyl-9-azabicyclo[3.3.1]nonan-3-yl)-6-chloro-2-((S-2,4-dimethylpiperazin-1-yl)benzoxazole-4-carboxamide Hydrochloride] — 1.7-fold lower, 16.1 nM
- CN1[C@@H]2CCC[C@H]1C[C@@H](NC(=O)c1cccc3oc(=O)[nH]c13)C2 [Example 56, Endo-N-(9-Methyl-9-azabicyclo[3.3.1]nonan-3-yl)-2-oxo-2,3-dihydrobenzoxazole-4-carboxamide Hydrochloride] — 2.6-fold higher, 72 nM
- CC[C@H]1COCCN1c1nc2c(C(=O)NC3CC4CCCC(C3)N4C)cc(Cl)cc2o1 (stereo partly drawn) [Example 62, Endo-N-(9-Methyl-9-azabicyclo[3.3.1]nonan-3-yl)-6-chloro 2-((S-3-ethylmorpholino)benzoxazole-4-carboxamide Hydrochloride] — 4.4-fold lower, 6.3 nM
- Nc1nc2c(C(=O)NC3CN4CCC3CC4)c(F)ccc2o1 [Example 139, (S)—N-(quinulidin-8-yl)-2-amino-5-fluorobenzoxazole-4-carboxamide Hydrochloride] — 2.5-fold higher, 67.4 nM
- CN1[C@@H]2COC[C@H]1C[C@@H](NC(=O)c1cccc3oc(Nc4ccccc4)nc13)C2 [Example 45, Endo-N-(9-Methyl-3-oxa-9-azabicyclo[3.3.1]nonan-7-yl)-2-(phenylamino)benzoxazole-4-carboxamide Hydrochloride] — within 1.5-fold, 22.6 nM
- CC(C)[C@@H]1COCCN1c1nc2c(C(=O)NC3CC4CCCC(C3)N4C)cccc2o1 (stereo partly drawn) [Example 152, Endo-N-(9-Methyl-9-azabicyclo[3.3.1]nonan-3-yl)-2-((R)-3-isopropylmorpholino)benzoxazole-4-carboxamide Hydrochloride] — 2.7-fold higher, 75 nM
- C[C@H]1CN(CC(F)(F)F)C[C@H](C)N1c1nc2c(C(=O)NC3CC4CCCC(C3)N4C)cccc2o1 (stereo partly drawn) [Example 137, Endo-N-(9-methyl-9-azabicyclo[3.3.1]nonan-3-yl)-2-((2S,6S)-2,6-dimethyl-4-(2,2,2-trifluoroethyl)piperazin-1-yl)benzoxazole-4-carboxamide Hydrochloride] — 15-fold lower, 1.8 nM
- CCNc1nc2c(C(=O)N[C@H]3C[C@H]4CCC[C@@H](C3)N4C)cccc2o1 [Example 105, Hydrochloride] — 8.3-fold lower, 3.3 nM
- C[C@@H]1CN(c2nc3c(C(=O)NC4CC5CCCC(C4)N5C)cccc3o2)C[C@H](C)O1 (stereo partly drawn) [Example 17, Endo-N-(9-Methyl-9-azabicyclo[3.3.1]non-3-yl)-2-[(2S,6R)-2,6-dimethylmorpholino]benzoxazole-4-carboxamide Hydrochloride] — 2-fold higher, 54.2 nM
- C[C@H]1CNCCN1c1nc2c(C(=O)N[C@H]3C[C@H]4CCC[C@@H](C3)N4C)cccc2o1 [Example 41a, Endo-N-(9-Methyl-9-azabicyclo[3.3.1]nonan-3-yl)-2-[(S)-2-methylpiperazin-1-yl]benzoxazole-4-carboxamide Hydrochloride] — 1.9-fold lower, 14.2 nM
- Endo-N-(9-Methyl-9-azabicyclo[3.3.1]nonan-3-yl)-2-((3aS,6aS)-hexahydropyrrolo[3,4-b]pyrrol-5(1H)-yl)benzoxazole-4-carboxamide Hydrochloride [Example 46] — 10-fold higher, 284 nM
- CNc1nc2c(C(=O)N[C@H]3C[C@H]4CCC[C@@H](C3)N4C)cccc2o1 [Example 34, Endo-N-(9-Methyl-9-azabicyclo[3.3.1]non-3-yl)-2-(methylamino)benzoxazole-4-carboxamide Hydrochloride] — 5.2-fold lower, 5.3 nM
- O=C(NC1CN2CCC1CC2)c1cccc2oc(N3CCOCC3c3ccccc3)nc12 [Example 20, (S)—N-(quinuclidine-8-yl)-2-(3-phenylmorpholino)benzoxazole-4-carboxamide Hydrochloride] — within 1.5-fold, 34.4 nM
- C[C@H]1CN(C)C(=O)[C@H](C)N1c1nc2c(C(=O)NC3CC4CCCC(C3)N4C)cccc2o1 (stereo partly drawn) [Example 120, Endo-N-(9-methyl-9-azabicyclo[3.3.1]nonan-3-yl)-2-((2S,6S)-2,4,6-trimethyl-3-oxopiperazine-1-yl)benzoxazole-4-carboxamide Hydrochloride] — 14-fold lower, 1.9 nM
- CCN(CC)c1nc2c(C(=O)N[C@@H]3CN4CCC3CC4)cccc2o1 [Example 115, (S)—N-(quinuclidine-8-yl)-2-diethylaminobenzoxazole-4-carboxamide Hydrochloride] — 5.7-fold lower, 4.8 nM
- CN(C)CCN(C)c1nc2c(C(=O)N[C@H]3C[C@H]4CCC[C@@H](C3)N4C)cccc2o1 [Example 31, Endo-N-(9-methyl-9-azabicyclo[3.3.1]nonan-3-yl)-2-((2-(dimethylamino)ethyl)(methyl)amino)benzoxazole-4-carboxamide hydrochloride] — 3.9-fold higher, 107 nM
- O=C(N[C@@H]1CN2CCC1CC2)c1cccc2oc(Nc3ccccc3)nc12 [Example 6, (S)—N-(quinuclidine-8-yl)-2-(phenylamino) benzoxazole-4-carboxamide Hydrochloride] — 3.4-fold lower, 8.1 nM
- CN1[C@@H]2CCC[C@H]1C[C@@H](NC(=O)c1cccc3oc(N4CCC(=O)CC4)nc13)C2 [Example 92, Endo-N-(9-methyl-9-azabicyclo[3.3.1]nonan-3-yl)-2-(4-oxopiperidin-1-yl)benzoxazole-4-carboxamide Hydrochloride] — within 1.5-fold, 21.2 nM
- C[C@H]1CN(Cc2ccccc2)C[C@H](C)N1c1nc2c(C(=O)NC3CC4CCCC(C3)N4C)cccc2o1 (stereo partly drawn) [Example 148, Endo-N-(9-methyl-9-azabicyclo[3.3.1]nonan-3-yl)-2-((2S,6S)-4-benzyl-2,6-dimethylpiperazin-1-yl)benzoxazole-4-carboxamide Hydrochloride] — 17-fold lower, 1.6 nM
- C[C@H]1CS(=O)(=O)C[C@H](C)N1c1nc2c(C(=O)NC3CC4CCCC(C3)N4C)cccc2o1 (stereo partly drawn) [Example 123, Endo-N-(9-methyl-9-azabicyclo[3.3.1]nonan-3-yl)-2-((3S,5S)/(3R,5R)-3,5-dimethylthiomorpholine 1,1-dioxide)benzoxazole-4-carboxamide Hydrochloride] — 2.1-fold higher, 57 nM
- CN1[C@@H]2CCC[C@H]1C[C@@H](NC(=O)c1cccc3oc(N4CCCCC4)nc13)C2 [Example 3, Endo-N-(9-Methyl-9-azabicyclo[3.3.1]non-3-yl)-2-(piperidin-1-yl)benzoxazole-4-carboxamide Hydrochloride] — 2.6-fold lower, 10.4 nM
- CNc1nc2c(C(=O)NC3CN4CCC3CC4)cccc2o1 [Example 113, (S)—N-(quinulidin-8-yl)-2-methylaminobenzoxazole-4-carboxamide Hydrochloride] — 1.9-fold lower, 14.5 nM
- CC[C@H]1COC[C@H](C)N1c1nc2c(C(=O)NC3CC4CCCC(C3)N4C)cccc2o1 (stereo partly drawn) [Example 87, Endo-N-(9-Methyl-9-azabicyclo[3.3.1]nonan-3-yl)-2-((3 S,5S)-3-ethyl-5-methylmorpholino)benzoxazole-4-carboxamide Hydrochloride] — 28-fold lower, 1 nM
- C[C@H]1COCCN1c1nc2c(C(=O)NC3CC4CCCC(C3)N4C)cc(Cl)cc2o1 (stereo partly drawn) [Example 106, Endo-6-Chloro-N-(9-methyl-9-azabicyclo[3.3.1]nonan-3-yl)-2-((S)-3-methylmorpholino)benzoxazole-4-carboxamide Hydrochloride] — 2.2-fold lower, 12.6 nM
- COC1CCN(c2nc3c(C(=O)N[C@H]4C[C@H]5CCC[C@@H](C4)N5C)cccc3o2)CC1 [Example 89, Endo-N-(9-Methyl-9-azabicyclo[3.3.1]nonan-3-yl)-2-(4-methoxypiperidin-1-yl)benzoxazole-4-carboxamide Hydrochloride] — within 1.5-fold, 36.9 nM
- C[C@@H]1CNC[C@@H](C)N1c1nc2c(C(=O)NC3CC4CCCC(C3)N4C)cccc2o1 (stereo partly drawn) [Example 69, Endo-N-(9-Methyl-9-azabicyclo[3.3.1]nonan-3-yl)-2-((2R,6R)-2,6-dimethylpiperazin-1-yl)benzoxazole-4-carboxamide Hydrochloride] — within 1.5-fold, 32.7 nM
